Test results reported in article PMC11191095, “QSAR Reveals Decreased Lipophilicity of Polar Residues Determines the Selectivity of Antimicrobial Peptide Activity” (ACS Omega, 2024).
“And” between values parts separate entries of the source, which are not always exact repeats. Identical values can stand only once. Where a SMILES comes first, the peptide text is derived from it.

Key:
human erythrocytes = test: In vitro hemolytic activity; type: cell-based; details: human erythrocytes in PBS, 1 h, 37 °C, OD550; from dose response curves
Protocol: Potential erythrocyte hemolysis was tested by incubating serial dilutions of the AMPs in PBS with freshly collected erythrocytes at a ratio of 1:1 in 96-well polypropylene V-shape plates for 1 h at 37 °C. Control wells were treated with 0.1% Triton-X-100 to ensure complete lysis or PBS-only to represent no lysis. The erythrocytes were collected by centrifugation and the OD550 of the supernatant was measured using a plate reader. The percentage hemolysis was calculated as [drawing 1] 1 where Apeptide is the absorbance value of erythrocytes exposed to a known peptide concentration, Agrowth control is the absorbance of erythrocytes exposed to 0.1% Triton-X-100 and Ablank is the absorbance of erythrocytes exposed to the PBS. The concentrations at which a peptide caused 10% (HC10) and 50% (HC50) hemolysis was determined from the dose response curves.

HaCat cell line = test: In vitro HaCat cytotoxicity (MTT); type: cell-based, human; details: 21 h exposure, OD570, relative to untreated control
Protocol: The HaCat cell line (Cellonex, South Africa) was cultured in Dulbecco’s Modified Eagle Medium (DMEM) supplemented with 10% heat-inactivated fetal calf serum (FCS) and 1% antibiotic-antimycotic (Abs) and maintained at 5–10% CO2, 37 °C, 95% humidity. For cytotoxicity screening, 5.56 × 10^4 cells/mL were plated in a 96-well plate. After 24 h incubation, the cells are initially exposed to each peptide at a concentration of 256 μg/mL or 0.1% Triton-X-100 as the control for 21 h. If cytotoxicity was observed, at a level of significance of p < 0.0001 compared with the untreated control after 21 h, a dose-response assay was undertaken. Cell viability was determined by adding 10% 3-(4,5-dimethyl-2-thiazolyl)-2,5-diphenyl-2H-tetrazolium bromide (MTT) (1 mg/mL), to each well and after a further 3 h incubation the media was discarded, and the formazan crystals dissolved by adding 25% DMSO in ethanol. The absorbance was measured at OD570 by using the FLUOstar Omega multidetection microplate reader (BMG Labtech). Percentage cell viability was calculated relative to the untreated control. The LC50 was defined as the concentration of AMP treatment that results in 50% lethality of HaCat cells and was determined from the dose-response curves.

E. coli LEC001 = test: microbe, parasite or virus in culture; type: cell-based, Escherichia coli
Method in brief: (§1)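 Peptides 128→2 μg/mL, 2-fold series; inoculum ~5 × 10^5 CFU/mL from overnight culture (OD600 0.01, mixed 1:1). MHB non-cation-adjusted for bacteria, RPMI 1640 + 2% glucose for fungi. 37 °C, 20 h, OD600. MIC50/MIC90 at 50%/90% inhibition; n ≥ 3.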

E. coli NCTC 12923 = test: microbe, parasite or virus in culture; type: cell-based, Escherichia coli
Method in brief: as §1

P. aeruginosa NCTC 13437 = test: microbe, parasite or virus in culture; type: cell-based, Pseudomonas aeruginosa
Method in brief: as §1

P. aeruginosa PAO1 = test: microbe, parasite or virus in culture; type: cell-based, Pseudomonas aeruginosa; details: P. aeruginosa PAO1 (S)
Method in brief: as §1

A. baumannii ATCC 17978 = test: microbe, parasite or virus in culture; type: cell-based, Acinetobacter baumannii
Method in brief: as §1

A. baumannii AYE = test: microbe, parasite or virus in culture; type: cell-based, Acinetobacter baumannii
Method in brief: as §1

K. pneumoniae M6 = test: microbe, parasite or virus in culture; type: cell-based, Klebsiella pneumoniae
Method in brief: as §1

K. pneumoniae NCTC 13368 = test: microbe, parasite or virus in culture; type: cell-based, Klebsiella pneumoniae
Method in brief: as §1

S. aureus (MRSA) 1199B = test: microbe, parasite or virus in culture; type: cell-based, Staphylococcus aureus; details: S. aureus (MRSA) 1199B (R); shown in µM
Method in brief: as §1

[1] = test system: S. aureus (MRSA) NCTC 13616; test: microbe, parasite or virus in culture; type: cell-based, Staphylococcus aureus
Method in brief: as §1

S. aureus (MRSA) USA300 = test: microbe, parasite or virus in culture; type: cell-based, Staphylococcus aureus
Method in brief: as §1

[2] = test system: S. aureus (MSSA) ATCC 9144; test: microbe, parasite or virus in culture; type: cell-based, Staphylococcus aureus
Method in brief: as §1

C. auris TDG 1912 = test: microbe, parasite or virus in culture; type: cell-based, Candida auris
Method in brief: as §1

C. albicans NCPF 3281 = test: microbe, parasite or virus in culture; type: cell-based
Method in brief: as §1

C. glabrata NCPF 8018 = test: microbe, parasite or virus in culture; type: cell-based
Method in brief: as §1

C. krusei NCPF 3876 = test: microbe, parasite or virus in culture; type: cell-based
Method in brief: as §1

[3] = test system: C. parapsilosis NCPF 3209; test: microbe, parasite or virus in culture; type: cell-based
Method in brief: as §1

C. tropicalis NCPF 8760 = test: microbe, parasite or virus in culture; type: cell-based
Method in brief: as §1

[4] = C. albicans NCPF 3281, shown in µM
[5] = C. glabrata NCPF 8018, shown in µM
[6] = C. krusei NCPF 3876, shown in µM
[7] = C. parapsilosis NCPF 3209, shown in µM
[8] = C. tropicalis NCPF 8760, shown in µM

## CC[C@H](C)[C@H](NC(=O)[C@H](C)NC(=O)[C@H](CCCCN)NC(=O)[C@@H]1CCCN1C(=O)[C@@H](NC(=O)[C@H](CC(C)C)NC(=O)[C@H](CCCCN)NC(=O)[C@H](Cc1ccccc1)NC(=O)[C@H](CC(C)C)NC(=O)[C@@H](N)Cc1ccccc1)[C@@H](C)CC)C(=O)N[C@@H](CCCCN)C(=O)N[C@@H](CCCCN)C(=O)N[C@@H](CC(C)C)C(=O)N[C@H](C(=O)N[C@@H](CO)C(=O)N[C@@H](CCCCN)C(=O)N[C@@H](Cc1ccccc1)C(=O)N[C@@H](CCCCN)C(=O)O)[C@@H](C)CC [AamAP1-Lys] (H-FLFKLIPKAIKKLISKFK-OH)
Human erythrocytes
  HC10 (concentration causing 10% hemolysis): 94 µg/mL
HaCat cell line
  % HaCat cell death at initial screening (256μg/mL) ± SD: 99.1 ± 8.7%

## CC[C@H](C)[C@H](N)C(=O)N[C@@H](CC(C)C)C(=O)NCC(=O)N[C@@H](CCCCN)C(=O)N[C@H](C(=O)N[C@@H](Cc1c[nH]c2ccccc12)C(=O)N[C@@H](CCCCN)C(=O)N1CCC[C@H]1C(=O)N[C@H](C(=O)N[C@@H](CCCCN)C(=O)N[C@@H](CCCCN)C(=O)N[C@@H](CC(C)C)C(=O)N[C@@H](Cc1ccccc1)C(N)=O)[C@@H](C)CC)[C@@H](C)CC [K7P8K11-IsCTa] (H-ILGKIWKPIKKLF-NH2)
E. coli LEC001; E. coli LEC001 (R), shown in µM
  Modal MIC: 39.5 µM
E. coli NCTC 12923; E. coli NCTC 12923 (S), shown in µM
  Modal MIC: 9.9 µM
P. aeruginosa NCTC 13437; P. aeruginosa NCTC 13437 (R), shown in µM
  Modal MIC: 39.5 µM
P. aeruginosa PAO1; MHB, 37 °C, 20 h, OD600, min. three biological repeats
  Modal MIC: > 128 µg/mL
P. aeruginosa PAO1; shown in µM
  Modal MIC: > 79 µM
A. baumannii ATCC 17978; A. baumannii ATCC 17978 (S), shown in µM
  Modal MIC: 4.9 µM
A. baumannii AYE; A. baumannii AYE (R), shown in µM
  Modal MIC: 4.9 µM
K. pneumoniae M6; K. pneumoniae M6 (S), shown in µM
  Modal MIC: 19.8 µM
K. pneumoniae NCTC 13368; K. pneumoniae NCTC 13368 (R), shown in µM
  Modal MIC: 39.5 µM
S. aureus (MRSA) 1199B
  Modal MIC: 19.8 µM
[1]; S. aureus (MRSA) NCTC 13616 (R), shown in µM
  Modal MIC: 39.5 µM
S. aureus (MRSA) USA300; S. aureus (MRSA) USA300 (R), shown in µM
  Modal MIC: 39.5 µM
[2]; S. aureus (MSSA) ATCC 9144 (S), shown in µM
  Modal MIC: 4.9 µM
C. auris TDG 1912; C. auris TDG 1912, 50% growth inhibition, RPMI 1640 + 2% glucose, 37 °C, 20 h, OD600
  Modal MIC50: > 128 µg/mL
C. auris TDG 1912; C. auris TDG 1912, 90% growth inhibition, RPMI 1640 + 2% glucose, 37 °C, 20 h, OD600
  Modal MIC90: > 128 µg/mL
C. auris TDG 1912; C. auris TDG 1912, shown in µM
  Modal MIC50: > 79 µM
  Modal MIC90: > 79 µM
C. albicans NCPF 3281; C. albicans NCPF 3281, 50% growth inhibition, RPMI 1640 + 2% glucose, 37 °C, 20 h
  Modal MIC50: > 128 µg/mL
C. albicans NCPF 3281; C. albicans NCPF 3281, 90% growth inhibition, RPMI 1640 + 2% glucose, 37 °C, 20 h
  Modal MIC90: > 128 µg/mL
C. albicans NCPF 3281; [4]
  Modal MIC50: > 79 µM
  Modal MIC90: > 79 µM
C. glabrata NCPF 8018; C. glabrata NCPF 8018, 50% growth inhibition, RPMI 1640 + 2% glucose, 37 °C, 20 h
  Modal MIC50: > 128 µg/mL
C. glabrata NCPF 8018; C. glabrata NCPF 8018, 90% growth inhibition, RPMI 1640 + 2% glucose, 37 °C, 20 h
  Modal MIC90: > 128 µg/mL
C. glabrata NCPF 8018; [5]
  Modal MIC50: > 79 µM
  Modal MIC90: > 79 µM
C. krusei NCPF 3876; [6]
  Modal MIC50: 19.8 µM
  Modal MIC90: 39.5 µM
[3]; [7]
  Modal MIC50: 39.5 µM
  Modal MIC90: 79 µM
C. tropicalis NCPF 8760; [8]
  Modal MIC50: 4.9 µM
  Modal MIC90: 9.9 µM
HaCat cell line
  % HaCat cell death at initial screening (256μg/mL) ± SD: 89.2 ± 9.1%

## CC[C@H](C)[C@H](NC(=O)[C@H](CCCCN)NC(=O)[C@H](CC(C)C)NC(=O)[C@H](C)NC(=O)[C@H](C)NC(=O)[C@H](CCCCN)NC(=O)[C@H](CC(C)C)NC(=O)[C@H](C)NC(=O)[C@H](CCCCN)NC(=O)CNC(=O)[C@H](CC(C)C)NC(=O)[C@H](Cc1ccccc1)NC(=O)[C@H](CO)NC(=O)CNC(=O)[C@H](Cc1ccccc1)NC(=O)CN)C(=O)NCC(=O)N[C@@H](C)C(=O)N[C@@H](CC(N)=O)C(=O)N[C@H](C(=O)N[C@@H](CC(C)C)C(=O)NCC(=O)NCC(=O)N[C@@H](C)C(=O)N1CCC[C@H]1C(=O)N[C@@H](CCC(N)=O)C(=O)N[C@@H](CCC(N)=O)C(=O)O)C(C)C [CPF-P3] (H-GFGSFLGKALKAALKIGANVLGGAPQQ-OH)
E. coli LEC001; LEC001, 20 h
  Modal MIC: 2.9 µM
E. coli NCTC 12923; NCTC 12923, 20 h
  Modal MIC: 2.9 µM
P. aeruginosa NCTC 13437; NCTC 13437, 20 h
  Modal MIC: 23.5 µM
A. baumannii ATCC 17978; ATCC 17978, 20 h
  Modal MIC: 1.5 µM
A. baumannii AYE; AYE, 20 h
  Modal MIC: 2.9 µM
K. pneumoniae M6; M6, 20 h
  Modal MIC: 11.8 µM
K. pneumoniae NCTC 13368; NCTC 13368, 20 h
  Modal MIC: 11.8 µM
[1]; NCTC 13616, 20 h
  Modal MIC: 1.5 µM
S. aureus (MRSA) USA300; USA300, 20 h
  Modal MIC: 2.9 µM
[2]; ATCC 9144, 20 h
  Modal MIC: 1.5 µM
C. auris TDG 1912; TDG 1912, 20 h
  Modal MIC50: > 47 µM
  Modal MIC90: > 47 µM
C. albicans NCPF 3281; NCPF 3281, 20 h
  Modal MIC50: > 47 µM
  Modal MIC90: > 47 µM
C. glabrata NCPF 8018; NCPF 8018, 20 h
  Modal MIC50: > 47 µM
  Modal MIC90: > 47 µM
C. krusei NCPF 3876; NCPF 3876, 20 h
  Modal MIC50: 23.5 µM
  Modal MIC90: 23.5 µM
[3]; NCPF 3209, 20 h
  Modal MIC50: > 47 µM
  Modal MIC90: > 47 µM
C. tropicalis NCPF 8760; NCPF 8760, 20 h
  Modal MIC50: 2.9 µM
  Modal MIC90: 5.8 µM
HaCat cell line
  % HaCat cell death at initial screening (256μg/mL) ± SD: 39.9 ±12.3% and 39.9%

## CC[C@H](C)[C@H](NC(=O)[C@H](C)NC(=O)[C@H](Cc1c[nH]cn1)NC(=O)[C@@H]1CCCN1C(=O)[C@@H](NC(=O)[C@H](CC(C)C)NC(=O)[C@H](CO)NC(=O)[C@H](Cc1ccccc1)NC(=O)[C@H](CC(C)C)NC(=O)[C@@H](N)Cc1ccccc1)[C@@H](C)CC)C(=O)NCC(=O)NCC(=O)N[C@@H](CC(C)C)C(=O)N[C@H](C(=O)N[C@@H](CO)C(=O)N[C@@H](C)C(=O)N[C@@H](Cc1ccccc1)C(=O)N[C@@H](CCCCN)C(=O)O)[C@@H](C)CC [AamAP1]
HaCat cell line
  % HaCat cell death at initial screening (256μg/mL) ± SD: 44.3 ±20.2%
